Test results published in patent US20080275022A1, “Substituted Quinazolones as Anti-Cancer Agents” (AstraZeneca AB, priority 2004, published 2008).
pIC50: −log10 of the molar value.

Target: human recombinant, purified wild type His-B-Raf protein kinase (Homo sapiens, UniProt P15056)
Assay: B-Raf In Vitro ELISA Assay
Format: biochemical
Conditions: phosphorylation of MEK1; 2.5 nM B-Raf, 0.15 μM MEK1, 10 μM ATP; 1 hour preincubation at 25° C.
Experimental: B-Raf In Vitro ELISA Assay
Activity of human recombinant, purified wild type His-B-Raf protein kinase was determined in vitro using an enzyme-linked immunosorbent assay (ELISA) assay format, which measures phosphorylation of the B-Raf substrate, human recombinant, purified His-derived (detagged) MEK1. The reaction utilized 2.5 nM B-Raf, 0.15 μM MEK1 and 10 μM adenosine triphosphate (ATP) in 40 mM N-(2-hydroxyethyl)piperazine-N′-(2-ethanesulfonic acid hemisodium salt (HEPES), 5 mM 1,4-dithio-DL-threitol (DTT), 10 mM MgCl2, 1 mM ethylenediaminetetraacetic acid (EDTA) and 0.2 M NaCl (1×HEPES buffer), with or without compound at various concentrations, in a total reaction volume of 25 μl in 384 well plates. B-Raf and compound were preincubated in 1×HEPES buffer for 1 hour at 25° C. Reactions were initiated with addition of MEK1 and ATP in 1×HEPES buffer and incubated at 25° C. for 50 minutes and reactions stopped by addition of 10 μl 175 mM EDTA (final concentration 50 mM) in 1×HEPES buffer. 5 μl of the assay mix was then diluted 1:20 into 50 mM EDTA in 1×HEPES buffer, transferred to 384 well black high protein binding plates and incubated overnight at 4° C. Plates were washed in tris buffered saline containing 0.1% Tween20 (TBST), blocked with 50 μl Superblock (Pierce) for 1 hour at 25° C., washed in TBST, incubated with 50 μl rabbit polyclonal anti-phospho-MEK antibody (Cell Signaling) diluted 1:1000 in TBS for 2 hours at 25° C., washed with TBST, incubated with 50 μl goat anti-rabbit horseradish peroxidase-linked antibody (Cell Signaling) diluted 1:2000 in TBS for 1 hour at 25° C. and washed with TBST. 50 μl of fluorogenic peroxidase substrate (Quantablu—Pierce) was added and following incubation for 45-60 minutes, 50 ul QuantabluSTOP (Pierce) was added. Blue fluorescent product was detected at excitation 325 and emission 420 using a TECAN Ultra plate reader. Data was graphed and IC50s calculated using Excel Fit (Microsoft).

Chain of human recombinant, purified wild type His-B-Raf protein kinase (P15056 whole entry): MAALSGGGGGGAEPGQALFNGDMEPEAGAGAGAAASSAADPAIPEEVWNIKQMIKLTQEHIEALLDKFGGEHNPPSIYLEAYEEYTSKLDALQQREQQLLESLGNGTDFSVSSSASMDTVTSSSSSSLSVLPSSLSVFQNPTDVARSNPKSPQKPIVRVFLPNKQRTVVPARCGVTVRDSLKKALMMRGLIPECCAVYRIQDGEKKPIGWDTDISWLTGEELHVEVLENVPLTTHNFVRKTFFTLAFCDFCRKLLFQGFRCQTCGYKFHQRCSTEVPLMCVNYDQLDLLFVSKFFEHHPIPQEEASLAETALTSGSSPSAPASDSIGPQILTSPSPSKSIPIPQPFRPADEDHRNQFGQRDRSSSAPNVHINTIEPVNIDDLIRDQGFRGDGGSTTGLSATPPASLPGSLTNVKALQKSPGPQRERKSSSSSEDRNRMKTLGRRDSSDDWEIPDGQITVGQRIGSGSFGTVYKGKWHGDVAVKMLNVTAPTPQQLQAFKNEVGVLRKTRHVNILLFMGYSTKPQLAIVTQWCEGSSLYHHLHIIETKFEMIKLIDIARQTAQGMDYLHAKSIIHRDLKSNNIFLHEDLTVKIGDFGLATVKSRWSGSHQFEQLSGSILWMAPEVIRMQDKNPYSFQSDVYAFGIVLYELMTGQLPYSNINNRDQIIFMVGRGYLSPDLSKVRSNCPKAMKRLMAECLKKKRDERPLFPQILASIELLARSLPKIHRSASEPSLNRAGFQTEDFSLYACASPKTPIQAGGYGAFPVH

| pIC50 | SMILES |
| --- | --- |
| 6.29 | Cc1ccc(NC(=O)c2cccc(C(F)(F)F)c2)cc1-n1cnc2ccc(OCCN3CCOCC3)cc2c1=O [Example 22, N-{4-Methyl-3-[6-(2-morpholinoethoxy)-4-oxo-4H-quinazolin-3-yl]phenyl}-3-trifluoromethylbenzamide] |
| 6.27 | Cc1ccc(NC(=O)c2cccc(C(F)(F)F)c2)cc1-n1cnc2ccc(NCCCN(C)C)cc2c1=O [Example 9, N-{3-[6-(3-Dimethylaminopropylamino)-4-oxo-4H-quinazolin-3-yl]-4-methylphenyl}-3-trifluoromethylbenzamide] |
| 5.49 | Cc1ccc(NC(=O)c2cccc(C(F)(F)F)c2)cc1-n1c(C)nc2ccc(N3CCOCC3)cc2c1=O [Example 14, N-[4-Methyl-3-(2-methyl-6-morpholin-4-yl-4-oxo-4H-quinazolin-3-yl)phenyl]-3-trifluoromethylbenzamide] |
